# Measured values: ChEMBL document CHEMBL3885861, “Open TG-GATES”
# Organism: Rattus norvegicus
# Assay: Open TG-GATES - Regimen: Single
# Assay type: toxicity, organism-based, Sprague-Dawley
# Design: regimen Single, gender Male, age 6 weeks
# Conditions: in vivo, po, 80 mg/kg, route gavage, dose level Middle; for APTT / Bas / Eos / Fbg / Hb / Ht / Lym / MCH / MCHC / MCV / Mono / Neu / PT / Plat / RBC / Ret / WBC: tissue Blood; for KIDNEY_L / KIDNEY_R / KIDNEY_TOTAL: tissue Kidney; for LIVER: tissue Liver; for A/G / ALP / ALT / AST / BUN / CRE / Ca / Cl / DBIL / GLC / IP / K / LDH / Na / PL / RALB / TBIL / TC / TG / TP / gamma-GTP: tissue Plasma
compound,measurement,setting,value
CCSCC[C@H](N)C(=O)O [ETHIONINE],TERMINAL_BW,3 h,217.5 g
same,APTT,3 h,18.6 s
same,Bas,3 h,0%
same,Eos,3 h,1%
same,Fbg,3 h,209 mg/dL
same,Hb,3 h,13.4 g/dL
same,Ht,3 h,39.6%
same,Lym,3 h,77.8%
same,MCH,3 h,21.3 pg
same,MCHC,3 h,33.9%
same,MCV,3 h,62.7 fL
same,Mono,3 h,2.8%
same,Neu,3 h,17.6%
same,PT,3 h,12.4 s
same,Plat,3 h,119.9 x10_4/uL
same,RBC,3 h,631.4 x10_4/ul
same,Ret,3 h,6.8%
same,WBC,3 h,71.3 x10_2/uL
same,KIDNEY_L,3 h,1 g
same,KIDNEY_R,3 h,1 g
same,KIDNEY_TOTAL,3 h,1.9 g
same,LIVER,3 h,9.9 g
same,A/G,3 h,1.6
same,ALP,3 h,765.4 IU/L
same,ALT,3 h,33 IU/L
same,AST,3 h,62.8 IU/L
same,BUN,3 h,10.4 mg/dL
same,CRE,3 h,0.4 mg/dL
same,Ca,3 h,10.3 mg/dL
same,Cl,3 h,101.4 meq/L
same,DBIL,3 h,0.052 mg/dL
same,GLC,3 h,207.4 mg/dL
same,IP,3 h,10 mg/dL
same,K,3 h,3.8 meq/L
same,LDH,3 h,171.6 IU/L
same,Na,3 h,140.4 meq/L
same,PL,3 h,120.8 mg/dL
same,RALB,3 h,3.3 g/dL
same,TBIL,3 h,0.1 mg/dL
same,TC,3 h,68.2 mg/dL
same,TG,3 h,43.8 mg/dL
same,TP,3 h,5.4 g/dL
same,gamma-GTP,3 h,1.4 IU/L
same,TERMINAL_BW,6 h,212.9 g
same,APTT,6 h,18.2 s
same,Bas,6 h,0%
same,Eos,6 h,1%
same,Fbg,6 h,215 mg/dL
same,Hb,6 h,13.5 g/dL
same,Ht,6 h,39.6%
same,Lym,6 h,79.4%
same,MCH,6 h,21.4 pg
same,MCHC,6 h,34.1%
same,MCV,6 h,62.7 fL
same,Mono,6 h,2.2%
same,Neu,6 h,16.6%
same,PT,6 h,12.9 s
same,Plat,6 h,116.1 x10_4/uL
same,RBC,6 h,632 x10_4/ul
same,Ret,6 h,6.3%
same,WBC,6 h,88 x10_2/uL
same,KIDNEY_L,6 h,1 g
same,KIDNEY_R,6 h,1 g
same,KIDNEY_TOTAL,6 h,1.9 g
same,LIVER,6 h,9.2 g
same,A/G,6 h,1.7
same,ALP,6 h,877.2 IU/L
same,ALT,6 h,35.6 IU/L
same,AST,6 h,65.2 IU/L
same,BUN,6 h,10.6 mg/dL
same,CRE,6 h,0.3 mg/dL
same,Ca,6 h,10.3 mg/dL
same,Cl,6 h,102.6 meq/L
same,DBIL,6 h,0.058 mg/dL
same,GLC,6 h,207.4 mg/dL
same,IP,6 h,9.4 mg/dL
same,K,6 h,3.7 meq/L
same,LDH,6 h,191.2 IU/L
same,Na,6 h,140.4 meq/L
same,PL,6 h,116.6 mg/dL
same,RALB,6 h,3.3 g/dL
same,TBIL,6 h,0.1 mg/dL
same,TC,6 h,58.8 mg/dL
same,TG,6 h,54.2 mg/dL
same,TP,6 h,5.4 g/dL
same,gamma-GTP,6 h,1 IU/L
same,TERMINAL_BW,9 h,215.1 g
same,APTT,9 h,19.5 s
same,Bas,9 h,0%
same,Eos,9 h,1%
same,Fbg,9 h,205.4 mg/dL
same,Hb,9 h,13.3 g/dL
same,Ht,9 h,39%
same,Lym,9 h,76%
same,MCH,9 h,21 pg
same,MCHC,9 h,34.1%
same,MCV,9 h,61.4 fL
same,Mono,9 h,2.4%
same,Neu,9 h,19.4%
same,PT,9 h,13.1 s
same,Plat,9 h,117 x10_4/uL
same,RBC,9 h,634.6 x10_4/ul
same,Ret,9 h,6.7%
same,WBC,9 h,77.6 x10_2/uL
same,KIDNEY_L,9 h,1 g
same,KIDNEY_R,9 h,1 g
same,KIDNEY_TOTAL,9 h,1.9 g
same,LIVER,9 h,9.1 g
same,A/G,9 h,1.5
same,ALP,9 h,727 IU/L
same,ALT,9 h,28.8 IU/L
same,AST,9 h,54.8 IU/L
same,BUN,9 h,10.6 mg/dL
same,CRE,9 h,0.3 mg/dL
same,Ca,9 h,10.4 mg/dL
same,Cl,9 h,101.4 meq/L
same,DBIL,9 h,0.086 mg/dL
same,GLC,9 h,197.6 mg/dL
same,IP,9 h,9.7 mg/dL
same,K,9 h,3.6 meq/L
same,LDH,9 h,174.2 IU/L
same,Na,9 h,140.6 meq/L
same,PL,9 h,133 mg/dL
same,RALB,9 h,3.4 g/dL
same,TBIL,9 h,0.1 mg/dL
same,TC,9 h,70.4 mg/dL
same,TG,9 h,95.6 mg/dL
same,TP,9 h,5.6 g/dL
same,gamma-GTP,9 h,1.4 IU/L
same,TERMINAL_BW,24 h,227.7 g
same,APTT,24 h,20.7 s
same,Bas,24 h,0%
same,Eos,24 h,1%
same,Fbg,24 h,224 mg/dL
same,Hb,24 h,13.7 g/dL
same,Ht,24 h,40.7%
same,Lym,24 h,79.8%
same,MCH,24 h,21.1 pg
same,MCHC,24 h,33.7%
same,MCV,24 h,62.7 fL
same,Mono,24 h,3.6%
same,Neu,24 h,14%
same,PT,24 h,13.6 s
same,Plat,24 h,122.5 x10_4/uL
same,RBC,24 h,649.8 x10_4/ul
same,Ret,24 h,6.5%
same,WBC,24 h,97.9 x10_2/uL
same,KIDNEY_L,24 h,1 g
same,KIDNEY_R,24 h,1 g
same,KIDNEY_TOTAL,24 h,2.1 g
same,LIVER,24 h,11.3 g
same,A/G,24 h,1.5
same,ALP,24 h,1010.2 IU/L
same,ALT,24 h,37 IU/L
same,AST,24 h,69 IU/L
same,BUN,24 h,13.4 mg/dL
same,CRE,24 h,0.4 mg/dL
same,Ca,24 h,10.8 mg/dL
same,Cl,24 h,101.2 meq/L
same,DBIL,24 h,0.09 mg/dL
same,GLC,24 h,215.8 mg/dL
same,IP,24 h,8.8 mg/dL
same,K,24 h,3.8 meq/L
same,LDH,24 h,210.6 IU/L
same,Na,24 h,139.4 meq/L
same,PL,24 h,129.6 mg/dL
same,RALB,24 h,3.5 g/dL
same,TBIL,24 h,0.1 mg/dL
same,TC,24 h,57.6 mg/dL
same,TG,24 h,98.2 mg/dL
same,TP,24 h,5.8 g/dL
same,gamma-GTP,24 h,1 IU/L
